US20260071220A1, “CONJUGATE OF NUCLEOTIDE ANALOG-CONTAINING DOUBLE-STRANDED RNAI ANALOG” (BaseCure Therapeutics LLC, priority 2022, published 2026)
In the oligonucleotide strings, read from the 5' end, every base follows the letter of its sugar. An asterisk marks phosphorothioate; unmarked linkages are phosphodiester. Other units and linkages are bracketed, terminal groups are in braces. A string of capitals states the bases alone. {D01} = GalNAc ligand D01, attached to sense strand by a phosphodiester bond; m = 2'-O-methyl; f = 2'-fluoro

Assays:
HEK BLUE hTLR3 = experiment: Cell activity detection (CellTiter-Glo) in hTLR3 cells; assay type: cell-based, human; conditions: 24 h, maximum concentration 200 nM, read-out: CC50
Method: (§1) 1) The conjugate of the present invention was diluted to a concentration that was 20 times a final concentration, the diluted conjugate was mixed with RNAiMAX-OPTI MEM (RNAiMAX:OPTI MEM=3:47) at a ratio of 1:1 and incubated for 15 min at room temperature.
(§2) 2) 10 μL of incubated conjugate of the present invention was added into a corresponding cell plate, with 10 concentrations in total, a maximum concentration being 200 nM, and double duplicated wells for each concentration.
(§3) 4) 90 μL of cells were seeded into a 96-well plate with the conjugate at the density of 50,000 cells/well.
(§4) 5) The conjugate of the present invention and the cells were co-incubated for 24 h in an incubator under the conditions of 37° C. and 5% CO2.
(§5) 8) Cell activity detection: the operation was carried out according to the method in the Celltiter-Glo specification, and a chemiluminescence signals (RLU) were detected using the multifunctional microplate reader Flexstation III.
(§6) Compound activity: the OD650 values were analyzed using GraphPad Prism software, and a dose effect curve of the compound was fit, and the EC50 value of the compound was calculated. Cell activity detection: the calculation formula of cell activity % was as follows. The cell activity % value was analyzed using GraphPadPrism software, the dose effect curve of the compound was fit, and the CC50 value of the compound on cell was calculated.

hTLR3 = molecular target: T1, hTLR3 (Homo sapiens, UniProt O15455); experiment: Agonistic activity on hTLR3 cells (HEK BLUE, QUANTI-Blue OD650); assay type: cell-based; conditions: 24 h, transfection with RNAiMAX, maximum concentration 200 nM, read-out: EC50
T1 construct: host or cells: HEK BLUE hTLR3 (HEK293-derived SEAP reporter line)
T1 sequence (O15455 24-904): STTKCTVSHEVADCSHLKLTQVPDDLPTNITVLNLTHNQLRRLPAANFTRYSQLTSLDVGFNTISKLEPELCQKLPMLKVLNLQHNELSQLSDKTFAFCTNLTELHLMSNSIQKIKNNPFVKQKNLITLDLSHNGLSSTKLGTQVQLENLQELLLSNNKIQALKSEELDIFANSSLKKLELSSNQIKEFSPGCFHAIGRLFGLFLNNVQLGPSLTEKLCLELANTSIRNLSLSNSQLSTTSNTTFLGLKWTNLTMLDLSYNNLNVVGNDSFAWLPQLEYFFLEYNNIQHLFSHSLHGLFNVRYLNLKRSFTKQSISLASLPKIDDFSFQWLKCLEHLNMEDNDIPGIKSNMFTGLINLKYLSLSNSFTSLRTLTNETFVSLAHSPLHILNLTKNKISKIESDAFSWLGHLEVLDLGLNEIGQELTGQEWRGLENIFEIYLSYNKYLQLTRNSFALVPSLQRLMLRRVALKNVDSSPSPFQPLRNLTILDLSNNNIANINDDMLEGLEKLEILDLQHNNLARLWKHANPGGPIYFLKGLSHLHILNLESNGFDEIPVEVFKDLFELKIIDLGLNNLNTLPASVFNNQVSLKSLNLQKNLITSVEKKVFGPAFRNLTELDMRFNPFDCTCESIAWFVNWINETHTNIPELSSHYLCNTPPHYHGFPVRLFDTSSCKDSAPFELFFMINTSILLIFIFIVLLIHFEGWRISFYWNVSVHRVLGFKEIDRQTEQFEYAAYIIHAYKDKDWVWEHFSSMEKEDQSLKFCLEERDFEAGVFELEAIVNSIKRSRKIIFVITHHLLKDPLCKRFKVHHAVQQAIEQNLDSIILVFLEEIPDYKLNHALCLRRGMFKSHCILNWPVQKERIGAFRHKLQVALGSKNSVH
Method: as §1, §2
(§7) 10 μL of 0.5 μM BLOCK-iT™ Alexa Fluor® Red Fluorescent Control was added into 2 transfection positive control wells.
as §3, §4
(§8) 7) Compound activity detection: 20 μL of cell supernatant was taken from each well and added into an experimental plate containing 180 μL of QUANTI-Blue™ reagent and then incubated for 1 h at 37° C., followed by detecting an absorbance values at 650 nm (OD650) using the multifunctional microplate reader Flexstation III.
as §6

HEK BLUE hTLR8 = experiment: Cell activity detection (CellTiter-Glo) in hTLR8 cells; assay type: cell-based, human; conditions: 24 h, maximum concentration 200 nM, read-out: CC50
Method: as §1, §2, §3, §4, §5, §6

hTLR8 = molecular target: T2, hTLR8 (Homo sapiens, UniProt Q9NR97); experiment: Agonistic activity on hTLR8 cells (HEK BLUE, QUANTI-Blue OD650); assay type: cell-based; conditions: 24 h, transfection with RNAiMAX, maximum concentration 200 nM
T2 construct: host or cells: HEK BLUE hTLR8 (HEK293-derived SEAP reporter line)
T2 sequence (Q9NR97 27-1041): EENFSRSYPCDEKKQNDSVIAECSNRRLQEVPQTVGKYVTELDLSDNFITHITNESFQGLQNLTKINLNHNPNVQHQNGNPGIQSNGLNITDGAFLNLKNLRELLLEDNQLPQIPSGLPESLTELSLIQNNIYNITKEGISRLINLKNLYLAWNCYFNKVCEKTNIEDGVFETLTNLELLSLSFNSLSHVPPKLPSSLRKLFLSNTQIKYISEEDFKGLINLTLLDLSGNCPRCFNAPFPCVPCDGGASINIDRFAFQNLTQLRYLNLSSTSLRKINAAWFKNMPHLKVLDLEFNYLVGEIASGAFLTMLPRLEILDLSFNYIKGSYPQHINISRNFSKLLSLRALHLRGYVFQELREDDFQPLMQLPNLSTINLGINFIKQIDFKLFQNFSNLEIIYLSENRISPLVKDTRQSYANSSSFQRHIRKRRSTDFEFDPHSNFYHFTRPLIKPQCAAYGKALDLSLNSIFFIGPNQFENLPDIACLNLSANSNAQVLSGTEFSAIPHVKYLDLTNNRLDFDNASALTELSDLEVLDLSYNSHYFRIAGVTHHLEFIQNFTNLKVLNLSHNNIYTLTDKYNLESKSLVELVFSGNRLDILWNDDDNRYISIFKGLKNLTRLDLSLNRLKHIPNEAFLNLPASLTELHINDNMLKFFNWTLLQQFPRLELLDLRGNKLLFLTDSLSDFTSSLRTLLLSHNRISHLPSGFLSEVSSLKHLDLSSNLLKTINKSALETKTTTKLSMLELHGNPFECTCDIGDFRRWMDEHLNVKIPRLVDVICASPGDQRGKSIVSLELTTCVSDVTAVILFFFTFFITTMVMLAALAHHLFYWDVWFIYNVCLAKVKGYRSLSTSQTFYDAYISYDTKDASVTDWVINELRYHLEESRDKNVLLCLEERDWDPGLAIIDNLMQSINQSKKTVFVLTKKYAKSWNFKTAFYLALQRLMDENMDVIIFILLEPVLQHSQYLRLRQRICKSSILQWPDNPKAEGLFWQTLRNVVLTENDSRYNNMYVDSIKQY
Method: as §1, §2, §7
4) 90 μL of cells were seeded into a 96-well plate with the conjugate at the density of 50,000 cells/well. […]
as §8
as §6, with “Cell activity detection: the calculation formula of cell activity % was as follows.” left out

Conjugate 2: Double-stranded RNAi analog against AGT, D01 GalNAc ligand on sense strand; sense SEQ ID NO: 6, antisense SEQ ID NO: 2 containing Z (sense mA*mU*fCfCmAfCfAfAmUmGmAmGmAfGmUmAmCmA-{D01}; antisense CUCACAUGUACNCUCAUUGUGGAUGACGA; antisense: chemistry not given here; antisense strand modified, includes nucleotide analog Z, further chemistry not fully specified)
> 200 nM: CC50 (HEK BLUE hTLR3) | EC50 (hTLR3) | CC50 (HEK BLUE hTLR8) | EC50 (hTLR8)

Conjugate 3: Double-stranded RNAi analog against AGT, D01 GalNAc ligand on sense strand; sense SEQ ID NO: 7, antisense SEQ ID NO: 2 containing Z (sense mA*mU*fCfCmAfCfAfAmUmGmAfGmAmGmUmAmCmA-{D01}; antisense CUCACAUGUACNCUCAUUGUGGAUGACGA; antisense: chemistry not given here; antisense strand modified, includes nucleotide analog Z, further chemistry not fully specified)
> 200 nM: CC50 (HEK BLUE hTLR3) | EC50 (hTLR3) | CC50 (HEK BLUE hTLR8) | EC50 (hTLR8)
